Measurements as given in ChEMBL document CHEMBL2412957, “Synthesis and SAR of 4-aminocyclopentapyrrolidines as orally active N-type calcium channel inhibitors for inflammatory and neuropathic pain” (Bioorg Med Chem Lett, 2013).
Converted amounts (≈) assume the structure as drawn. Each block holds one compound with its values, some of them ahead of it.

Assays:
[1] = Oral bioavailability in rat at 5 umol/kg; assay type: ADME, organism-based; conditions: in vivo
[2] = AUC in rat at 5 umol/kg, po; assay type: ADME, organism-based; conditions: plasma
[3] = Plasma clearance in rat at 5 umol/kg, iv and 5 umol/kg, po; assay type: ADME, organism-based
[4] = Half life in rat at 5 umol/kg, iv and 5 umol/kg, po; assay type: ADME, organism-based; conditions: in vivo
[5] = Volume of distribution at steady state in rat at 5 umol/kg, iv and 5 umol/kg, po; assay type: ADME, organism-based; conditions: in vivo, read-out: Vdss
[6] = Metabolic stability in rat liver microsomes assessed as compound remaining after 30 mins; assay type: ADME, Microsome; conditions: read-out: Stability
[7] = Metabolic stability in human liver microsomes assessed as compound remaining after 30 mins; assay type: ADME, Microsome; conditions: read-out: Stability
[8] = Solubility of the compound by chemiluminescent nitrogen detection method
[9] = target: Voltage-dependent N-type calcium channel subunit alpha-1B (Homo sapiens, UniProt Q00975); assay: Inhibition of N-type Cav2.2 channel (unknown origin) by FLIPR assay
Sequence of Voltage-dependent N-type calcium channel subunit alpha-1B (Homo sapiens, UniProt Q00975) (Q00975 whole entry): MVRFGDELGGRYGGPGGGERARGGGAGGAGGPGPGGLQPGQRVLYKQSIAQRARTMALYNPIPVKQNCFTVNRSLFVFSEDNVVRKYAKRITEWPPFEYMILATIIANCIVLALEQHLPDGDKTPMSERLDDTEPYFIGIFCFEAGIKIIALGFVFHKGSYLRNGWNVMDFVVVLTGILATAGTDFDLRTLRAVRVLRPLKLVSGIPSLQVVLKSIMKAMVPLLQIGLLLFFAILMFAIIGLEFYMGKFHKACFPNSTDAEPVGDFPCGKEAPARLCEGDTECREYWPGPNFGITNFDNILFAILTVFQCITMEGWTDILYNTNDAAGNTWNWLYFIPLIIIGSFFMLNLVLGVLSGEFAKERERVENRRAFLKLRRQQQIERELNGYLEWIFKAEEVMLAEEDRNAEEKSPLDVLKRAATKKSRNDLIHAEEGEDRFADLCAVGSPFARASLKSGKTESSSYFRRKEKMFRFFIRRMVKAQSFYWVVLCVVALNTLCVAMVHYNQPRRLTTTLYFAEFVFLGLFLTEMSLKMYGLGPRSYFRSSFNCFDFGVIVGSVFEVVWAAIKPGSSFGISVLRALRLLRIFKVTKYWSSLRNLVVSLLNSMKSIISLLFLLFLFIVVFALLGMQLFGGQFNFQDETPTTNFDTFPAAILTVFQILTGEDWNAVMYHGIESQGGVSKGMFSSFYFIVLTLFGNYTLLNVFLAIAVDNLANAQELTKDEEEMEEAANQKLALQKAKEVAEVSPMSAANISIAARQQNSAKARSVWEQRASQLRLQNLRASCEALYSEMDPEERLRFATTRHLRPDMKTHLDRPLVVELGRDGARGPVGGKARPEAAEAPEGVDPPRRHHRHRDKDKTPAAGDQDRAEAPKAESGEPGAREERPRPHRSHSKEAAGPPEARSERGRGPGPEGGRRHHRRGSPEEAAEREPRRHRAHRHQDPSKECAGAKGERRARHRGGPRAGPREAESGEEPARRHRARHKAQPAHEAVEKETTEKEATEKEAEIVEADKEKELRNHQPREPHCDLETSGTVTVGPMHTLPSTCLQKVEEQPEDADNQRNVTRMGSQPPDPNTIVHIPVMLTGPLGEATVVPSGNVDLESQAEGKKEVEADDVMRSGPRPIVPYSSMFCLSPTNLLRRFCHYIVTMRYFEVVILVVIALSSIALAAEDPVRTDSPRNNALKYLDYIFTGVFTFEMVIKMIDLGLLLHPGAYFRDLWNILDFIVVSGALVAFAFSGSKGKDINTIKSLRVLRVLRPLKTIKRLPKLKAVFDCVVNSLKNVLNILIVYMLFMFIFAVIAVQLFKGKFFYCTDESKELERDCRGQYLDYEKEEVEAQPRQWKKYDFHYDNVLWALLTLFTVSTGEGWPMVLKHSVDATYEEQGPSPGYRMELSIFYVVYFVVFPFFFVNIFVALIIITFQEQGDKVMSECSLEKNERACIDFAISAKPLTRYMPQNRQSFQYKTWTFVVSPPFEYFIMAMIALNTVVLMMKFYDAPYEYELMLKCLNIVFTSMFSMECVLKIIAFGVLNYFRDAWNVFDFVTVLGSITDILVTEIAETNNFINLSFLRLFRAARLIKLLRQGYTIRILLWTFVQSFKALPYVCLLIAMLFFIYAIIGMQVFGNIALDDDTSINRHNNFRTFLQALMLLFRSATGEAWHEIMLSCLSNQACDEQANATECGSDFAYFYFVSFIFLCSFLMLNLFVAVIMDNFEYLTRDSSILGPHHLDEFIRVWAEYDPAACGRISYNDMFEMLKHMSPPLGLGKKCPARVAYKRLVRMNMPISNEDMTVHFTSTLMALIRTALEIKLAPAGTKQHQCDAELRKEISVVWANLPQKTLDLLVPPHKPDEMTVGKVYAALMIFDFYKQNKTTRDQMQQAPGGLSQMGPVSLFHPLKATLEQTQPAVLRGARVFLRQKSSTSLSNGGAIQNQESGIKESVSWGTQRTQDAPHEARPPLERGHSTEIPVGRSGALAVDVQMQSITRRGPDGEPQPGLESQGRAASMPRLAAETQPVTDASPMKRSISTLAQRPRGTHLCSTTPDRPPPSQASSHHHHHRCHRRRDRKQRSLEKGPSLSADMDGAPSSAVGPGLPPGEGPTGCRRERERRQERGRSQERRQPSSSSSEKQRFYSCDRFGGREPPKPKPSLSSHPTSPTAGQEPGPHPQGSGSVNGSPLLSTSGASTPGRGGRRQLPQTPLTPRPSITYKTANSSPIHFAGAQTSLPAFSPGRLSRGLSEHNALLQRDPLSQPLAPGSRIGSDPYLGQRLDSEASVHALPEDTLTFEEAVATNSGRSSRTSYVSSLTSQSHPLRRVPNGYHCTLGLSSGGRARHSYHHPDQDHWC

[10] = (§1) Plasma clearance in rat at 5 umol/kg, iv and 30 umol/kg, po; assay type: ADME, organism-based; conditions: plasma
[11] = (§2) Oral bioavailability in rat at 30 umol/kg; assay type: ADME, organism-based; conditions: in vivo, 30 umol/kg
[12] = Volume of distribution at steady state in rat at 5 umol/kg, iv and 30 umol/kg, po; assay type: ADME, organism-based; conditions: in vivo, read-out: Vdss
[13] = Half life in rat at 5 umol/kg, iv and 30 umol/kg, po; assay type: ADME, organism-based; conditions: in vivo
[14] = target: Voltage-gated inwardly rectifying potassium channel KCNH2 (Homo sapiens, UniProt Q12809); assay: Inhibition of dofetilide binding to human ERG
[15] = target: Voltage-gated L-type calcium channel (Rattus norvegicus, UniProt P22002+Q02485+P27732); assay: Inhibition of L-type calcium channel in rat aorta ring tissue assessed as relaxation of tissue; assay type: tissue-based
Rattus norvegicus [16] = assay: Cardiotoxicity in anesthetized rat assessed as decrease in mean arterial pressure at plasma concentration of 1.57 ug/mL; assay type: toxicity, organism-based
Rattus norvegicus [17] = organism: Rattus norvegicus; assay: Analgesic activity in rat chronic constriction injury-induced neuropathic pain model; assay type: functional
Rattus norvegicus [18] = organism: Rattus norvegicus; assay: Analgesic activity in rat monoiodoaceate-induced osteoarthritis pain model; assay type: functional
Rattus norvegicus [19] = organism: Rattus norvegicus; assay: Analgesic activity in rat capsaicin secondary mechanical hyperalgesia pain model; assay type: functional
[20] = target: T1, Voltage-dependent N-type calcium channel subunit alpha-1B (Rattus norvegicus, UniProt Q02294); assay: Inhibition of rat N-type Cav2.2 channel expressed in HEK293 cells under hyperpolarized condition by whole cell patch-clamp manual electrophysiology assay; assay type: cell-based
T1 sequence (Q02294 whole entry): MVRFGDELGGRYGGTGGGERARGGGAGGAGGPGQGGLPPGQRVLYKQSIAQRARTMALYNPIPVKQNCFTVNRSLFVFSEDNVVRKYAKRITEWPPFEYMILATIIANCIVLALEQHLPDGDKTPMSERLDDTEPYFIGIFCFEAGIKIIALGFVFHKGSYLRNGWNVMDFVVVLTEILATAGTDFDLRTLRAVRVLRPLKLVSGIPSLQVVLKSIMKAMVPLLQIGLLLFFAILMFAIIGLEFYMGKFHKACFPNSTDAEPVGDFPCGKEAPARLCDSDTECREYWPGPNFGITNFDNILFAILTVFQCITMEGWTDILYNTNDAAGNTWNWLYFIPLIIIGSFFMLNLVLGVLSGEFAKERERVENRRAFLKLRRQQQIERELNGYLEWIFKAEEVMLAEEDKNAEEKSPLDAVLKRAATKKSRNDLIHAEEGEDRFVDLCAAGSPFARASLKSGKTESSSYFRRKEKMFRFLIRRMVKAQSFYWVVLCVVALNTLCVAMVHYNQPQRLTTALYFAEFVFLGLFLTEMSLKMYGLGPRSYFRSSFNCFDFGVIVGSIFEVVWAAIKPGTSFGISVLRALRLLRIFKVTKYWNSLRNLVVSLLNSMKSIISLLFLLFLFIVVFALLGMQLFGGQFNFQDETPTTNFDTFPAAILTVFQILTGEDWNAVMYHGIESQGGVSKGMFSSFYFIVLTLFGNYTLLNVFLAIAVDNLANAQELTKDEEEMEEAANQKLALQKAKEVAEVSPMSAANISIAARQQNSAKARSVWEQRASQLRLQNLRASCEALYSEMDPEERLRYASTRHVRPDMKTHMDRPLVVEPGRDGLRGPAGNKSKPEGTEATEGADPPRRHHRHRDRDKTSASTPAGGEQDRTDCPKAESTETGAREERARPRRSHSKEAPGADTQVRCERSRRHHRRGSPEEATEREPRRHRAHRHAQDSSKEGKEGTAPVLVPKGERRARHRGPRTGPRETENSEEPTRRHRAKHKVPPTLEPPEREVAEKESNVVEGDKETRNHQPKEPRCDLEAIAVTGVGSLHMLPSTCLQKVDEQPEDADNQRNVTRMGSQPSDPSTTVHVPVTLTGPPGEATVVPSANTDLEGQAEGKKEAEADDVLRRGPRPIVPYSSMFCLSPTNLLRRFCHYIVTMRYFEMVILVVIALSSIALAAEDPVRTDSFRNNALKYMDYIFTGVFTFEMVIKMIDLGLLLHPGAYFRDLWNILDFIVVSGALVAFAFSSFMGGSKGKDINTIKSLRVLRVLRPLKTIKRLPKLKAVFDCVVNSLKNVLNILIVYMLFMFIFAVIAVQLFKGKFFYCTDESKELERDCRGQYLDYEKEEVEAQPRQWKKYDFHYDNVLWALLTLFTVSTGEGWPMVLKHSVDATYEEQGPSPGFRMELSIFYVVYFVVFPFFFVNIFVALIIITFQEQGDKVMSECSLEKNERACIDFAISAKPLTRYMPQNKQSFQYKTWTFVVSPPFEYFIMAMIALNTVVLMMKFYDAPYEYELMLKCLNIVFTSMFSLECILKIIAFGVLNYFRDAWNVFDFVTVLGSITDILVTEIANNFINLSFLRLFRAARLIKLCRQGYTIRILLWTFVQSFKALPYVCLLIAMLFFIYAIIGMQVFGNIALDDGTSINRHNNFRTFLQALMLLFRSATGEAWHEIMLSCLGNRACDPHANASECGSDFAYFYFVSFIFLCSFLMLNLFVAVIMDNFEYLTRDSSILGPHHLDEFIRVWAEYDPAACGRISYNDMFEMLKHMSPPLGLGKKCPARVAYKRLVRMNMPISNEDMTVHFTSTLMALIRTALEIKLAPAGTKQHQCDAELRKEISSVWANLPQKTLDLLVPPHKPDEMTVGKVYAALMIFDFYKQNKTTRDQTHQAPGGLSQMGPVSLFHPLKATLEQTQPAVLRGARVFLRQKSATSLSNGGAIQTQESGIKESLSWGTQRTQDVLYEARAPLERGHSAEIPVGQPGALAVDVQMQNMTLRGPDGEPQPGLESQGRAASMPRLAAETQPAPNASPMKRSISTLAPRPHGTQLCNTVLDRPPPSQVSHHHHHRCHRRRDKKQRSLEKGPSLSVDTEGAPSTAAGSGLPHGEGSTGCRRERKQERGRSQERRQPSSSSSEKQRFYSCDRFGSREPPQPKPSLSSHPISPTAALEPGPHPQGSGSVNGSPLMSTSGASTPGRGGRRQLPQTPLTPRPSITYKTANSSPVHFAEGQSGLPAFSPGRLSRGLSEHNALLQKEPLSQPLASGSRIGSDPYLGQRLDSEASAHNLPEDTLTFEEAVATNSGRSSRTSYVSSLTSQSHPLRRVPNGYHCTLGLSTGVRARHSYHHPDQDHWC

[21] = Ratio of drug level brain to plasma in po dosed rat after 60 mins; assay type: ADME, organism-based; conditions: read-out: BPR
[22] = target: T1, Voltage-dependent N-type calcium channel subunit alpha-1B; assay: Inhibition of rat N-type Cav2.2 channel expressed in HEK293 cells under depolarized condition by whole cell patch-clamp manual electrophysiology assay; assay type: cell-based
Rattus norvegicus [23] = assay: (§3) AUC in rat at 30 umol/kg, po; assay type: ADME, organism-based, Plasma; conditions: in vivo
Rattus norvegicus [24] = assay: as §1; assay type: ADME, organism-based; conditions: in vivo
Rattus norvegicus [25] = assay: as §2; assay type: ADME, organism-based; conditions: in vivo, at 30 µmol/kg
[26] = as §3; assay type: ADME, organism-based, Plasma; conditions: plasma, 30 umol/kg
[27] = Ratio of drug level brain to plasma in rat at 3 umol/kg, ip after 30 mins; assay type: ADME, organism-based; conditions: read-out: BPR

Structure (SMILES): CC(C)C[C@H](N)C(=O)N[C@@H]1CC[C@H]2CN(S(=O)(=O)c3cccc(C(F)(F)F)c3)C[C@H]21
clearance [10]: 568 mL/min/kg | bioavailability [11]: 0% | Vd [12]: 15 L/kg | half-life [13]: 30 min | remaining at 0.5 h [6]: 10.3% | remaining at 0.5 h [7]: 45% | solubility [8]: 44 µM (≈ 19.7 µg/mL) | IC50 ([9]; read-out: IC50): 1060 nM

Structure (SMILES): CC(C)C[C@H](NS(C)(=O)=O)C(=O)N[C@@H]1CC[C@H]2CN(Cc3cccc(C(F)(F)F)c3)C[C@H]21
remaining at 0.5 h [6]: 42.1% | remaining at 0.5 h [7]: 23.6% | solubility [8]: 80 µM (≈ 38 µg/mL) | IC50 ([9]; read-out: IC50): 2840 nM

Structure (SMILES): CN[C@@H](Cc1ccccc1)C(=O)N[C@H]1CC[C@@H]2CN(S(=O)(=O)c3ccc(C(F)(F)F)cc3)C[C@@H]21
remaining at 0.5 h [6]: 26.2% | remaining at 0.5 h [7]: 26.8% | IC50 ([9]; read-out: IC50): 860 nM

Structure (SMILES): O=C(N[C@@H]1CC[C@H]2CN(Cc3cccc(C(F)(F)F)c3)C[C@H]21)C(C1CCCCC1)C1CCCCC1
Ki [14]: 9.52 µM | remaining at 0.5 h [6]: 2.6% | remaining at 0.5 h [7]: 1.2% | solubility [8]: < 3 µM | IC50 ([9]; read-out: IC50): 1870 nM

Structure (SMILES): O=C(N[C@H]1CC[C@H]2CN(Cc3cccc(C(F)(F)F)c3)C[C@H]21)C(C1CCCCC1)C1CCCCC1
Ki [14]: 0.69 µM | remaining at 0.5 h [6]: 0.1% | remaining at 0.5 h [7]: 0.5% | solubility [8]: < 3 µM

Structure (SMILES): CCC[C@H](NC)C(=O)N[C@H]1CC[C@@H]2CN(S(=O)(=O)c3ccc(C(F)(F)F)cc3)C[C@@H]21
remaining at 0.5 h [6]: 83.4% | remaining at 0.5 h [7]: 74.6% | solubility [8]: 97 µM (≈ 43.4 µg/mL) | IC50 ([9]; read-out: IC50): 960 nM

Structure (SMILES): CN[C@@H](CC(C)C)C(=O)N[C@H]1CC[C@@H]2CN(c3cccc(C(F)(F)F)c3)C[C@@H]21
remaining at 0.5 h [6]: 81% | remaining at 0.5 h [7]: 73% | solubility [8]: 56 µM (≈ 22.3 µg/mL) | IC50 ([9]; read-out: pIC50 (converted)): 1170 nM

Structure (SMILES): CC(C)N[C@@H](CC(C)(C)C)C(=O)N[C@H]1CC[C@@H]2CN(S(=O)(=O)c3ccc(C(F)(F)F)cc3)C[C@@H]21
IC50 [15]: 2.6 µM | Activity (Rattus norvegicus [16]): Toxic | ED50 (Rattus norvegicus [17]): 32 mg/kg | ED50 (Rattus norvegicus [18]): 8 mg/kg | ED50 (Rattus norvegicus [19]): 13 mg/kg | IC50 [20]: 340 nM | Kp at 1 h [21]: 0.9 | IC50 [22]: 340 nM | AUC (Rattus norvegicus [23]): 240 ng·h/mL | CL (Rattus norvegicus [24]): 2 L/h/kg | F (Rattus norvegicus [25]): 46.7% | Vd [12]: 7.1 L/kg | half-life [13]: 162 min | remaining at 0.5 h [6]: 64.3% | remaining at 0.5 h [7]: 79.6%

Structure (SMILES): CN[C@@H](CC(C)(C)C)C(=O)N[C@H]1CC[C@@H]2CN(S(=O)(=O)c3ccc(C(F)(F)F)cc3)C[C@@H]21
remaining at 0.5 h [6]: 66.5% | remaining at 0.5 h [7]: 33.6% | solubility [8]: 76 µM (≈ 36.1 µg/mL) | IC50 ([9]; read-out: IC50): 790 nM | IC50 ([9]; read-out: pIC50 (converted)): 832 nM

Structure (SMILES): CN[C@@H](CC(C)C)C(=O)N[C@H]1CC[C@@H]2CN(c3ccc(OC(F)(F)F)cc3)C[C@@H]21
remaining at 0.5 h [6]: 66% | remaining at 0.5 h [7]: > 85% | solubility [8]: 31 µM (≈ 12.8 µg/mL) | IC50 ([9]; read-out: IC50): 5150 nM

Structure (SMILES): CC(C)(C)C[C@H](N)C(=O)N[C@H]1CC[C@@H]2CN(S(=O)(=O)c3ccc(C(F)(F)F)cc3)C[C@@H]21
remaining at 0.5 h [6]: 79.4% | remaining at 0.5 h [7]: 41.8% | solubility [8]: 68 µM (≈ 31.4 µg/mL) | IC50 ([9]; read-out: IC50): 870 nM | IC50 ([9]; read-out: pIC50 (converted)): 933 nM

Structure (SMILES): CC(C)(C)[C@H](N)C(=O)N[C@H]1CC[C@@H]2CN(S(=O)(=O)c3ccc(C(F)(F)F)cc3)C[C@@H]21
remaining at 0.5 h [6]: 77.1% | remaining at 0.5 h [7]: 75.6% | solubility [8]: 94 µM (≈ 42.1 µg/mL) | IC50 ([9]; read-out: IC50): 1510 nM

Structure (SMILES): CN[C@@H](CC(C)C)C(=O)N[C@H]1CC[C@@H]2CN(c3ccc(C(F)(F)F)cc3)C[C@@H]21
ED50 (Rattus norvegicus [17]): 10 mg/kg | ED50 (Rattus norvegicus [18]): 3 mg/kg | IC50 [20]: 4400 nM | IC50 [22]: 1000 nM | bioavailability [1]: 83% | AUC [2]: 799 ng·h/mL | Kp at 0.5 h [27]: 16.5 | clearance [3]: 21.7 mL/min/kg | half-life [4]: 924 min | Vd [5]: 26.5 L/kg | remaining at 0.5 h [6]: > 85% | remaining at 0.5 h [7]: > 85% | solubility [8]: 33 µM (≈ 13.1 µg/mL) | IC50 ([9]; read-out: IC50): 1240 nM

Structure (SMILES): CN[C@@H](CC(C)C)C(=O)N[C@@H]1CC[C@H]2CN(Cc3cccc(C(F)(F)F)c3)C[C@H]21
remaining at 0.5 h [6]: 60.7% | remaining at 0.5 h [7]: 19.4% | solubility [8]: 67 µM (≈ 27.6 µg/mL) | IC50 ([9]; read-out: IC50): 1890 nM

Continued, values first:

bioavailability [1]: 21% | AUC [2]: 221 ng·h/mL | clearance [3]: 36.7 mL/min/kg | half-life [4]: 126 min | Vd [5]: 5.6 L/kg | remaining at 0.5 h [6]: 47.3% | remaining at 0.5 h [7]: 50.5% | solubility [8]: 27 µM (≈ 12.5 µg/mL) | IC50 ([9]; read-out: IC50): 770 nM | IC50 ([9]; read-out: pIC50 (converted)): 851 nM
Structure (SMILES): CN[C@@H](CC(C)C)C(=O)N[C@@H]1CC[C@H]2CN(S(=O)(=O)c3ccc(C(F)(F)F)cc3)C[C@H]21

remaining at 0.5 h [6]: 66.4% | remaining at 0.5 h [7]: 51.1% | solubility [8]: 38 µM (≈ 17.5 µg/mL) | IC50 ([9]; read-out: IC50): 750 nM
Structure (SMILES): CCCC[C@H](NC)C(=O)N[C@H]1CC[C@@H]2CN(S(=O)(=O)c3ccc(C(F)(F)F)cc3)C[C@@H]21

AUC [26]: 405 ng·h/mL | clearance [10]: 60 mL/min/kg | bioavailability [11]: 10.5% | Vd [12]: 9.2 L/kg | half-life [13]: 120 min | remaining at 0.5 h [6]: 26.5% | remaining at 0.5 h [7]: 25.5% | solubility [8]: 75 µM (≈ 34.6 µg/mL) | IC50 ([9]; read-out: IC50): 520 nM | IC50 ([9]; read-out: pIC50 (converted)): 631 nM
Structure (SMILES): CN[C@@H](CC(C)C)C(=O)N[C@@H]1CC[C@H]2CN(S(=O)(=O)c3cccc(C(F)(F)F)c3)C[C@H]21

bioavailability [1]: 50% | AUC [2]: 422 ng·h/mL | clearance [3]: 46.7 mL/min/kg | half-life [4]: 198 min | Vd [5]: 13.2 L/kg | remaining at 0.5 h [6]: 69.9% | remaining at 0.5 h [7]: 54.4% | solubility [8]: 77 µM (≈ 35.5 µg/mL) | IC50 ([9]; read-out: IC50): 750 nM | IC50 ([9]; read-out: pIC50 (converted)): 851 nM
Structure (SMILES): CN[C@@H](CC(C)C)C(=O)N[C@H]1CC[C@@H]2CN(S(=O)(=O)c3ccc(C(F)(F)F)cc3)C[C@@H]21

remaining at 0.5 h [6]: 89.2% | remaining at 0.5 h [7]: 22.8% | solubility [8]: 20 µM (≈ 9.79 µg/mL) | IC50 ([9]; read-out: IC50): 490 nM | IC50 ([9]; read-out: pIC50 (converted)): 575 nM
Structure (SMILES): CCN[C@@H](CC(C)(C)C)C(=O)N[C@H]1CC[C@@H]2CN(S(=O)(=O)c3ccc(C(F)(F)F)cc3)C[C@@H]21

AUC [26]: 35 ng·h/mL | clearance [10]: 56.7 mL/min/kg | bioavailability [11]: 0.8% | Vd [12]: 5.2 L/kg | half-life [13]: 84 min | remaining at 0.5 h [6]: 1% | remaining at 0.5 h [7]: 0.1% | solubility [8]: 79 µM (≈ 37.6 µg/mL) | IC50 ([9]; read-out: IC50): 450 nM
Structure (SMILES): CC(C)C[C@@H](C(=O)N[C@@H]1CC[C@H]2CN(S(=O)(=O)c3cccc(C(F)(F)F)c3)C[C@H]21)N(C)C
